Entries after “also recorded” stand apart in the source; their conditions may differ.
Tests used:
[1] = tested on: MCF-7+A3 cells (stably transfected with human A3AR cDNA); assay: Soft agar assay with MCF-7 cells stably expressing A3 adenosine receptor; format: cell-based; settings: MCF-7+A3 pool vs MCF-7
Description: Anchorage-independent growth (soft agar) assay: Soft agar assay was performed as described (40) with the following modifications. Ligands were added into the bottom and top agar before plating into 6-well plates. Cells were treated with trypsin (Invitrogen, Carlsbad, Calif.) for 5 minutes in a 37° C. incubator and pipetted several times so that most cells were in single cell forms. Cells were counted with a hemacytometer (Hausser Scientific/VWR, So. Plainfield, N.J.), and 10,000 cells were mixed with top agar and plated into each well. After the top agar had solidified, two ml of medium containing the same treatment was added on top of the agar. This covering medium was changed every two days during culture. After two weeks of culture, each well was counted for the number of colonies formed on an Olympus IX70 microscope under 40× optical amplification. A cell colony was defined as any cluster of cells that contain more than 3 cells. The average of counts from 3 random optical fields for each well was taken as the colony number and analyzed. Each treatment was performed in triplicates. The averages and standard deviations shown in the figures were calculated based on triplicate experiments. […] Clones of cells grown up were analyzed for their A3AR expression using RT-PCR.

[2] = tested on: estrogen receptor α (ERα) mRNA; assay: Semi-quantitative RT-PCR of ERα mRNA in MCF-7 cells; format: cell-based, human; settings: 100 μM
Description: Total RNA preparation and Reverse Transcription Polymerase Chain Reaction (RT-PCR): Total RNA from MCF-7 cells was prepared with Trizol (Invitrogen, Carlsbad, Calif.) as described before (41). For reverse transcription, 2 μg of RNA were used in a […] with random primers and M-MLV reverse transcriptase (Invitrogen, Carlsbad, Calif.), following the manufacturer's protocol. To control for possible contamination from genomic DNA in subsequent PCR reactions, control reverse transcription reactions were carried out under identical conditions, only without reverse transcriptase. After reverse transcription, 5% of the product was used in each PCR reaction. For the experiments analyzing A3 adenosine receptor (A3AR) expression, 27 cycles were used in the PCR reactions. Specific primers were designed for human A3AR, which match to two separate exons, according to genomic sequences (from GenBank). Sequences for the sense and antisense A3AR primers are: 5′tccatcatgtccttgctg3′ (SEQ ID NO: 1) and 5′gcacatgacaaccaggg3′ (SEQ ID NO.: 2). In the experiments analyzing estrogen receptor a (ERα) mRNA, semi-quantitative PCR reactions were carried out with 23 cycles for ERα primers and 19 cycles for GAPDH primers (used as a control). The cycle numbers were tested in previous experiments not to produce saturation effects. […]

Hs578T cells = assay: Anchorage-dependent growth assay; format: cell-based, human; settings: 100 μM, three days
Description: (§1) Anchorage-dependent growth assay: Cells were plated into 6-well plates and grown overnight before treatments. The seeding concentration of MCF-7 cells was 2×10^5/well, which was determined during preliminary experiments as not allowing the cells to reach confluency within 3 days. Cells were treated either with vehicle or ligands, as indicated. Cells were detached by incubation with trypsin (Invitrogen, Carlsbad, Calif.) and counted with a hemacytometer before or after treatment.

ZR-75 cells = assay: Anchorage-dependent growth assay; format: cell-based, human; settings: 100 μM, three days
Description: as §1

[3] = tested on: ERE promoter activity (transcriptional activity of endogenous ERα); assay: Reporter gene assay pERE-Tk-Luc in MCF-7 cells; format: cell-based, human; settings: MCF-7 transfected with pERE-Tk-Luc; 12 hours
Description: Transfections and Reporter Gene Assay: Transient transfection was performed using FuGene6 (Roche, Indianapolis, Ind.) transfection reagent according to manufacturer's protocol. Circular reporter plasmid pERE-Tk-Luc at 10 μg and 10 μg of pCMV-β-Gal (as a measure of efficiency of trasnfection) were transfected with 50 μl of FuGene6. Cells were split into 6 well plates 12 hours after transfection, and incubated overnight in fresh medium. […] Luciferase and β-galactosidase activities were measured as described before (43, 44).

[4] = tested on: estrogen receptor α (ERα); assay: ERα protein level by Western blot in MCF-7 cells; format: cell-based, human
Description: Western Blot Analysis: Cells were washed three times in cold 1×PBS, and collected by scraping on ice. Western blot analysis was performed as we described before with the chemiluminescence method (41). […] Cyclin A, cyclin B1 and p27 antibodies were used at 1:500 dilutions. Cyclin E antibody was used at 1:1000 dilutions.

[5] = tested on: ERα protein in T47D cells; assay: ERα protein level in T47D cells; format: cell-based, human; settings: not shown
Description: Western Blot Analysis: Cells were washed three times in cold 1×PBS, and collected by scraping on ice. Western blot analysis was performed as we described before with the chemiluminescence method (41). Antibodies used in this study were: ERα (NeoMarkers, Ab-15), Cyclin A (Santa Cruz Biotech, H-432), Cyclin B1 (Santa Cruz Biotech, H-433), Cyclin E (Upstate Biotech, HE-12), p27 (Santa Cruz Biotech, F-8). ERα antibody was used at 1:100 dilutions. Cyclin A, cyclin B1 and p27 antibodies were used at 1:500 dilutions. Cyclin E antibody was used at 1:1000 dilutions.

[6] = tested on: primary rat bone marrow cells; assay: Thymidine incorporation assay; format: cell-based; settings: 24 hours, IB-MECA at 100 μM
Description: Thymidine Incorporation Assay. Thymidine incorporation assays were performed as described (Zhang, Y., Wang, Z., and Ravid, K. The cell cycle in polyploid megakaryocytes is associated with reduced activity of cyclin B1-dependent cdc2 kinase. J Biol Chem, 271: 4266-4272, 1996) with modifications. Rat bone marrow cells were cultured in 25 cm^2 flasks at a concentration of 20×10^6 cells per 2 ml. After drug treatment for 24 hours, cells were incubated with ^3H-thymidine at a final concentration of 3 μCi/ml for 8 hours. For MCF-7 cells, cells were cultured in 6-well plates and incubated with ^3H-thymidine for 2 hours after drug treatment. Cells were divided into two portions, sixty percent of which were processed as described (Id.) to obtain tritium counts. The rest of the cells were lysed with Western blotting lysis buffer and protein concentrations were determined by Bio-Rad protein assay reagent (Bio-Rad, Hercules, Calif.). Tritium counts were normalized with corresponding protein concentrations to account for cell number variations.

**Q.** `CNC(=O)[C@H]1O[C@@H](n2cnc3c(NCc4cccc(I)c4)ncnc32)[C@H](O)[C@@H]1O` [IB-MECA, N^6-(3-iodobenzyl)adenosine-5′-N-methyluronamide] was tested. Which “Dosage response of colony formation compared to normal MCF-7 cells” value [1] did it give?
**A.** Its value is “almost identical dosage response”.

**Q.** What about the “Time of first sign of decrease of ERα mRNA” value [2] of the same compound?
**A.** The value was 4 h.

**Q.** And the “ERα mRNA level, in words” value ([2]; 4 to 24 hours, compared to GAPDH)?
**A.** The value was “strongly downregulated; also recorded: dramatic decrease”.

**Q.** What about the “Cell counts after treatment compared to day 0, in words” value (Hs578T cells) of the same compound?
**A.** The value was “affected more severely”.

**Q.** And the “Cell counts after treatment compared to day 0, in words” value (ZR-75 cells)?
**A.** Its value is “decreased only mildly”.

**Q.** What about the “Drop of ERE promoter activity” value [3] of the same compound?
**A.** Its value is “more than 5 fold”.

**Q.** And the “ERα Level” value ([4]; 12 hours, 100 μM, except adenosine (500 μM), Western blot quantitated, vehicle control set to 1, average of two experiments)?
**A.** Its value is 0.23.

**Q.** What about the “ERα protein level, in words” value ([4]; Western blot) of the same compound?
**A.** Its value is “decreased”.

**Q.** What about the ERα protein degradation ([4]; protein synthesis inhibited by cycloheximide 50 μg/ml, 100 μM) of the same compound?
**A.** Its ERα protein degradation is “did not notice any significant change in ERα protein degradation”.

**Q.** And the “ERα protein levels, in words” value [5]?
**A.** The value was “Reduction of ERα protein levels”.

**Q.** What about the “Thymidine incorporation reduced to” value [6] of the same compound?
**A.** Its value is 68%.

Source: patent US20060100168A1, “Method of treating cancer using adenosine and its analogs” (The Trustee of Boston University, priority 2002, published 2006)
